Assay results taken from ChEMBL document CHEMBL1131520, “A novel (benzodifuranyl)aminoalkane with extremely potent activity at the 5-HT2A receptor” (J Med Chem, 1998).

Columns and labels:
[1] = biological target: 5-hydroxytryptamine receptor 2B (Homo sapiens, UniProt P41595); experiment: Binding activity against cloned human 5-hydroxytryptamine 2B receptor using [3H]5-HT as the radioligand.
[2] = biological target: T1, 5-hydroxytryptamine receptor 2C (Homo sapiens, UniProt P28335); experiment: Binding activity against cloned human 5-hydroxytryptamine 2C receptor using [125I]DOI as the radioligand.
T1 sequence (P28335 whole entry): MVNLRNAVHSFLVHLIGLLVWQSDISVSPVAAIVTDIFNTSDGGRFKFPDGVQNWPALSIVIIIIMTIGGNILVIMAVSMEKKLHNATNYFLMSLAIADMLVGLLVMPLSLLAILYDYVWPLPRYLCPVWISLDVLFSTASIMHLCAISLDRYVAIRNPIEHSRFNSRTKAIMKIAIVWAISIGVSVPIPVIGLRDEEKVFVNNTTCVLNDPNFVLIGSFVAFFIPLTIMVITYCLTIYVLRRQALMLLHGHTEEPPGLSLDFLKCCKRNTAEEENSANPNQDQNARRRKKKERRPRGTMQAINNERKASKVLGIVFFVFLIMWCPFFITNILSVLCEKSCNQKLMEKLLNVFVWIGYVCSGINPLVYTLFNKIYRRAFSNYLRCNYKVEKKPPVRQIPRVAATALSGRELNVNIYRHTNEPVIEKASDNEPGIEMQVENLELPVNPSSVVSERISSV

[3] = species: Rattus norvegicus; experiment: Drug discrimination studies in rats(12) expressed as ED50 value; format: functional
[4] = species: Rattus norvegicus; experiment: Drug discrimination studies in rats(22) expressed as ED50 values; format: functional
[5] = biological target: 5-hydroxytryptamine receptor 2A (Rattus norvegicus, UniProt P14842); experiment: […] measured for 5-hydroxytryptamine 2A receptor using [3H]-MDL- 100,907 as radioligand in rat cortical homogenates.; format: tissue-based
Chain of 5-hydroxytryptamine receptor 2A (Rattus norvegicus, UniProt P14842) (P14842 whole entry): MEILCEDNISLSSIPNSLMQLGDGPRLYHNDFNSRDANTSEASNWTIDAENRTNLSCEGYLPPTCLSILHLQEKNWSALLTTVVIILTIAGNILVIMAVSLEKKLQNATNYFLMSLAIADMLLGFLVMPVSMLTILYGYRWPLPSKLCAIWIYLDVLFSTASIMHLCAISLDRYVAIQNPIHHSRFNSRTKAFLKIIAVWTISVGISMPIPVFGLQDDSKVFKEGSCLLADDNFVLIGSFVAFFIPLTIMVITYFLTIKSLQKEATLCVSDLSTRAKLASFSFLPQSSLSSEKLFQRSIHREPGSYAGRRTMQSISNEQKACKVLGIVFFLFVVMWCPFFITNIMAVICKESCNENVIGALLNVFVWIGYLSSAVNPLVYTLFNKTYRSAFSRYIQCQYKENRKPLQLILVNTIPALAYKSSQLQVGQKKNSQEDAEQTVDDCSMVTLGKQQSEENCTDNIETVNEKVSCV

[6] = species: Rattus norvegicus; experiment: Drug discrimination studies in rats(7-15) expressed as ED50 value; format: functional
[7] = biological target: 5-hydroxytryptamine receptor 2A (Homo sapiens, UniProt P28223); experiment: Binding activity against cloned human 5-hydroxytryptamine 2A receptor using [125I]DOI as the radioligand.
Chain of 5-hydroxytryptamine receptor 2A (Homo sapiens, UniProt P28223) (P28223 whole entry): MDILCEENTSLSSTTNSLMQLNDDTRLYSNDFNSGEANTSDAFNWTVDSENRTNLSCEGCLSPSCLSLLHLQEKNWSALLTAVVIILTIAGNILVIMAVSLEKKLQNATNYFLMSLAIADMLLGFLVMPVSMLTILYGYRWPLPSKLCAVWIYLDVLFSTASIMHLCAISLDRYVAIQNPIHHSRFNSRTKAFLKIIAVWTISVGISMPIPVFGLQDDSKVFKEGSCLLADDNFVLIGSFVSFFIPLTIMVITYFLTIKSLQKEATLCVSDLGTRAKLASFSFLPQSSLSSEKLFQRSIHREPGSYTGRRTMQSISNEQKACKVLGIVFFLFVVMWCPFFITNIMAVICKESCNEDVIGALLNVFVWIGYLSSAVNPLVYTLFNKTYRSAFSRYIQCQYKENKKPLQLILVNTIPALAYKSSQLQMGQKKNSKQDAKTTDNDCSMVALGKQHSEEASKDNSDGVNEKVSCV

[8] = species: Rattus norvegicus; experiment: Drug discrimination studies in rats(16-19) expressed as ED50 value; format: functional
[9] = species: Rattus norvegicus; experiment: Drug discrimination studies in rats(9-12) expressed as ED50 value; format: functional

Chain of 5-hydroxytryptamine receptor 2B (P41595 whole entry): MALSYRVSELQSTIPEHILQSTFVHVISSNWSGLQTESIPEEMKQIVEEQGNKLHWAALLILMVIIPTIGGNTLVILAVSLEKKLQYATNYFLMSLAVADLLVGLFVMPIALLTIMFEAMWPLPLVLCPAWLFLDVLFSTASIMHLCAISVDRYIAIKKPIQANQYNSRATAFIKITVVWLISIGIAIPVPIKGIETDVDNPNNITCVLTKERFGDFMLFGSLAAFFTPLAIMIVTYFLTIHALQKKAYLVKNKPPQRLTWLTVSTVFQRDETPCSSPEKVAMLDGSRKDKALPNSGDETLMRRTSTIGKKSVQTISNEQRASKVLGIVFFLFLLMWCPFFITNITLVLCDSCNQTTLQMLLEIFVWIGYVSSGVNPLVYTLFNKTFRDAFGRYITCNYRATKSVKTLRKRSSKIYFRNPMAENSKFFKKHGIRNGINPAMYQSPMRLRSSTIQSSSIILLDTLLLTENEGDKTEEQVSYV

SMILES	Ki [1] [nM]	Ki [2] [nM]	Ki [5] [nM]	further results
COc1cc(CC(C)N)c(OC)cc1I (configuration not stated)	42.7	1.82	–	ED50 [3]: 0.3 µmol/kg
CCN(CC)C(=O)[C@@H]1C=C2c3cccc4[nH]cc(c34)C[C@H]2N(C)C1 [LYSERGIDE]	–	–	–	ED50 [4]: 0.04 µmol/kg
CC(N)Cc1c2c(c(Br)c3c1OCC3)OCC2 (configuration not stated)	–	–	14.8	–
CC(N)Cc1c2ccoc2c(Br)c2ccoc12 (configuration not stated)	–	–	0.23	–
CC(N)Cc1c2c(c(Br)c3c1OCC3)OCC2 (racemic)	–	–	–	ED50 [6]: 0.061 µmol/kg
CC(N)Cc1c2ccoc2c(Br)c2ccoc12 (racemic)	0.19	0.02	–	Ki [7]: 0.04 nM; ED50 [8]: 0.022 µmol/kg; ED50 [9]: 0.039 µmol/kg
